In the NIST ThermoML archive (doi:10.1016/j.jct.2012.06.030):
Numbers after ± are expanded uncertainties.

Assay: molar heat capacity at constant pressure; xn = mol fraction of the nth substance listed
Conditions: 101 kPa, Liquid, Small sample (50 mg) DSC, x2 = 0

O [water] + CCCCCC[n+]1ccc2ccccc2c1.N#C[S-]
Conditions | molar heat capacity at constant pressure [J/K/mol]
288.15 K | 75.9 ± 3.2
293.15 K | 75.8 ± 3.2
298.15 K | 75.7 ± 3.2
303.15 K | 75.7 ± 3.2
308.15 K | 75.6 ± 3.2
313.15 K | 75.5 ± 3.2
318.15 K | 75.5 ± 3.2
323.15 K | 75.4 ± 3.2
328.15 K | 75.4 ± 3.2
333.15 K | 75.3 ± 3.2
338.15 K | 75.3 ± 3.2
343.15 K | 75.3 ± 3.2
